This experiment deals with fibroblast monolayers. Briefly: Cellular cholesterol mass determined enzymatically. It is filed as cell-based, human. Conditions: 2 mM NEM, 120 min, 37° C.; control 4.1 ± 0.3. On the procedure:
In most experiments, LDL was labeled directly with ^3 H-FC by exchange from albumin-agarose covalent complex essentially as previously described (Miida et al., Biochemistry, 29: 10469-10474 (1990)). Briefly, recrystallized human serum albumin (Sigma Chemical Co, St. Louis, Mo., USA) was covalently linked to CNBr-activated Sepharose 6B (Pharmacia). 1,2-^3 H-FC in ethanol (0.1-1.0 mCi, 10-20 μl/ml gel suspension) was added and the mixture incubated with gentle stirring for 60 mm at 37° C. The labeled suspension was centrifuged (500× g, 1 min) and the gel equilibrated (60 min, 37° C.) with unlabeled LDL prepared as described above. Finally the gel was removed by centrifugation, leaving labeled LDL in the supernatant. LDL total and FC mass was determined fluorimetrically with cholesterol oxidase (Heider & Boyett, J. Lipid Res. 19: 514-518 (1978)) in the presence or absence of cholesterol esterase. EC mass was obtained by difference. LDL ^3 H-radioactivity was measured by liquid scintillation spectrometry. FC specific activity in these experiments was 3×10^4 to 5×10^5 cpm μg^-1.
The FC and EC mass of cell monolayers was determined before and after incubation with lipoprotein as described above. Portions of the chloroform phase were analyzed for total and free cholesterol. […]
^a Increase in cellular cholesterol mass determined enzymatically ove

The structures appear in SMILES notation.

For the compound `CCN1C(=O)C=CC1=O` [N-ethylmaleimide], the Δ total cholesterol is 0.4 ± 0.2 μg dish^-1.
